Columns and labels:
Plasmodium falciparum [1] = assay: NOVARTIS: Inhibition of Plasmodium falciparum 3D7 (drug-susceptible) proliferation in erythrocyte-based infection assay; assay type: functional, organism-based; settings: Plasmodium falciparum, 3D7
Plasmodium falciparum [2] = assay: NOVARTIS: Inhibition of Plasmodium falciparum W2 (drug-resistant) proliferation in erythrocyte-based infection assay; assay type: functional, organism-based; settings: Plasmodium falciparum, W2; read-out: EC50
[3] = NOVARTIS: Cytotoxicity against human hepatocellular carcinoma cell line (Huh7); assay type: toxicity, cell-based, Huh-7; settings: Huh7 cells (hepatocellular carcinoma cell line)

Structure (SMILES)	EC50 (Plasmodium falciparum [1]) [nM]	EC50 (Plasmodium falciparum [2]) [nM]	CC50 [3] [nM]
CCN(CC)CCCC(C)N=c1[nH]c(C=Cc2ccccc2OC)nc2cc(Cl)ccc12 (centres undefined)	30.8	160	7930
Cc1cc(C)[n+]2nc(N)c3ccccc3c2n1.[O-][Cl+3]([O-])([O-])[O-]	248	193	> 10000
CN(C)c1ccc(/C=C2/SC(=Nc3ccccc3)NC2=O)cc1	109	200	> 10000
CC(=O)NC(CO)C(O)c1ccc([N+](=O)[O-])cc1 (centres undefined)	> 9720	2050	> 100000
O=C(CN1CCCC1)Nc1ccc(Cc2ccc(NC(=O)CN3CCCC3)cc2)cc1	307	367	18800
C(=NNc1nc2ccccc2[nH]1)c1c[nH]c2ccccc12	330	391	19200
COC(=O)c1cn([C@@H]2C[C@@H](C(=O)NCc3cccc(C(F)(F)F)c3)N(C3CCN(Cc4ccccc4)CC3)C2)nn1	1520	1980	> 100000
CC(CNC(=O)c1ccccc1)C(=O)OCC(=O)[C@@]12OC(C)(C)O[C@@H]1CC1C3CCC4=CC(=O)C=C[C@]4(C)[C@@]3(F)[C@@H](O)C[C@@]12C (some centres undefined)	165	159	8220
COc1ccc2c(c1)OC(O)(C(F)(F)C(F)(F)F)CC2=O (centres undefined)	442	1000	49700
CCCCCCc1ccc(C(=O)N(C)CCCNc2ccnc3cc(Cl)ccc23)cc1	670	219	> 10800
CC[n+]1c(/C=C/c2cc(Br)ccc2OC)ccc2ccccc21	155	202	> 10000
CCN(CC)S(=O)(=O)c1ccc(C(=O)c2c(C)c(C(=O)C(F)(F)F)c3ccccn23)cc1	3150	2020	> 100000
CCOC(=O)c1c(C)n(-c2ccccc2)c2ccc(OC(=O)c3ccccc3NC(=O)C(C)C)cc12	885	1990	> 100000
CC(=O)N(C)C1=C(N2CCCC2)C(=O)c2ccccc2C1=O	516	299	15000
COc1ccc(C=C2N=C(c3ccc(Cl)cc3)N(c3ccccc3)C2=O)cc1OC	> 12500	1990	> 100000
CN(CCCNc1ccnc2cc(Cl)ccc12)C(=O)C1CCC1	192	93	4570
COc1ccc(NC(=O)c2cc3cc(C4(O)CCN(CC(C)c5ccccc5)CC4)ccc3o2)cc1 (centres undefined)	2400	1980	> 100000

Structure (SMILES)	EC50 (Plasmodium falciparum [1]) [nM]	EC50 (Plasmodium falciparum [2]) [nM]	CC50 [3] [nM]
COC(C)(C)CNCc1cc2cc3c(cc2n(Cc2cccc(C(F)(F)F)c2)c1=O)CCC3	> 1250	> 198	> 10000
O=C(C=Cc1ccc(Br)cc1)NC(=O)c1ccccc1O	684	2040	> 100000
C#CC(C)(C)NC(=O)c1ccc(-c2ccc(CC)cc2)cc1	3030	1970	> 100000
COc1cc(OC)c(NC(=O)c2ccc(N3CC4CC(C3)c3cccc(=O)n3C4)c([N+](=O)[O-])c2)cc1Cl (centres undefined)	9690	1930	> 100000
CCCCn1c(=N)n(CC(O)c2ccc(Cl)c(Cl)c2)c2ccccc21 (centres undefined)	62.5	120	6240
O=C(C=Cc1ccccc1)Nc1ccc(-c2nc3cc(NC(=O)C=Cc4ccccc4)ccc3[nH]2)cc1	56	116	5700
COc1cccc(-c2cn3c(n2)sc2cc(C(=O)NC4CCN(Cc5ccccc5)CC4)ccc23)c1	513	1980	> 100000
CCCc1ccc(C(=O)NC(=O)c2ccccc2O)cc1	193	325	16500
CC(=O)N(C=C1Sc2ccccc2C1=O)c1ccc(C)cc1	10700	1970	> 100000
C=CC(C)(CCC=C(C)C)c1ccc2c3c(c[nH]c13)CC(CO)NC(=O)C(C(C)C)N2C (centres undefined)	552	197	> 10000
COc1cccc(C=NNC(=O)CSc2ccccc2C)c1O	7940	1960	> 100000
COc1ccc(S(=O)(=O)N(C)CCCNc2ccnc3cc(Cl)ccc23)cc1	115	197	10100
Cc1cccc(NC(=O)c2cc(Cl)nc3ccccc23)c1	3670	1940	> 100000
Cc1ccc(C(=O)NNc2nc(Nc3ccccc3)nc(N3CCCC3)n2)cc1	> 12500	1990	> 100000
CN(C)S(=O)(=O)c1ccc(C(=O)Nc2nc3c(ccc4ccccc43)s2)cc1	> 9470	1970	> 100000
CN(CCCNc1ccnc2cc(Cl)ccc12)S(=O)(=O)c1ccc([N+](=O)[O-])cc1	240	217	> 11100
